{"source": "ChEMBL document CHEMBL1146426", "about": "“Isolation and characterization of new anti-HIV and cytotoxic leads from plants, marine, and microbial organisms” (J Nat Prod, 1997)", "key": {"[1]": {"test_system": "Human immunodeficiency virus 1", "assay": "Antiviral activity against HIV1 infected in human CEM-SS cells assessed as inhibition of virus-induced cytopathic effect after 6 days by XTT-based assay", "type": "functional, organism-based", "conditions": "Human immunodeficiency virus 1, CEM-SS, 144 h"}, "CEM-SS": {"test_system": "CEM-SS", "assay": "Cytotoxicity against human CEM-SS cells after 6 days by XTT-based assay", "type": "cell-based", "conditions": "144 h"}, "[2]": {"test_system": "Human immunodeficiency virus 1", "assay": "Antiviral activity against HIV1 infected in human CEM-SS cells assessed as protection against viral infection after 6 days by XTT-based assay relative to control", "type": "functional"}}, "data": [{"smiles": "COc1ccc2c(c1CC=C(C)C)O[C@H]1c3ccc(O)cc3OC[C@@H]21", "note": "[SANDWICENSIN]", "values": [{"measurement": "EC50", "setting": "[1]", "result": 2, "unit": "µg/mL"}, {"measurement": "IC50", "setting": "CEM-SS", "result": 7, "unit": "µg/mL"}, {"measurement": "Activity", "setting": "[2]", "result": 50, "unit": "%"}]}, {"smiles": "COc1cc2c(cc1CC=C(C)C)[C@@H]1Oc3cc(O)ccc3[C@@H]1CO2", "values": [{"measurement": "EC50", "setting": "[1]", "result": 0.2, "unit": "µg/mL"}, {"measurement": "IC50", "setting": "CEM-SS", "result": 3, "unit": "µg/mL"}, {"measurement": "Activity", "setting": "[2]", "result": 80, "unit": "%"}]}]}
